This assay deals with Gag-Pol polyprotein (Human immunodeficiency virus type 1 group M subtype B (isolate BH10)(HIV-1)) (UniProt P03366). In words: Inhibition of RNA dependent DNA polymerase activity of HIV1 BH10 recombinant reverse transcriptase p66/p51 expressed in Escherichia coli at 10 uM. The following applies: Human immunodeficiency virus 1.
For the compound `CCCCCCCC/C=C\CCCCCCCC(=O)OC[C@H](CO[C@@H]1O[C@H](CO)[C@H](O)[C@H](O)C1O)OC(=O)CCCCCCCCCCCCCCC` (single isomer, unassigned), the inhibition amounted to 33%.

Take `CCCCC/C=C\C/C=C\CCCCCCCC(=O)OC[C@H](CO[C@H]1O[C@H](CS(=O)(=O)O)[C@@H](O)[C@H](OC(=O)CCCCCCCCCCCCCCC)[C@H]1OC(=O)CCCCCCCCCCCCCCC)OC(=O)CCCCCCCCCCCCCCC`: the inhibition was found to be 100%. In the case of `CCCCCCCCCCCCCCCC(=O)OC[C@H](CO[C@@H]1O[C@H](CO)[C@H](O)[C@H](O)C1O)OC(=O)CCCCCCCCCCCCCCC` (single isomer, unassigned) it was 8%; in that of `CCCCCCCCCCCCCCCC(=O)OC[C@H](CO[C@H]1O[C@H](CS(=O)(=O)O)[C@@H](O)[C@H](O)[C@H]1O)OC(=O)CCCCCCCCCCCCCCC`, 100%. As for `CCCCC/C=C\C/C=C\CCCCCCCC(=O)OC[C@H](CO[C@@H]1O[C@H](CO[C@H]2O[C@H](CO)[C@H](O)[C@H](OC(=O)CCCCCCCCCCCCCCC)[C@H]2O)[C@H](O)[C@H](O)[C@H]1O)OC(=O)CCCCCCCCCCCCCCC`, the inhibition was 42%. For `CCCCC/C=C\C/C=C\CCCCCCCC(=O)OC[C@H](CO[C@@H]1O[C@H](CO)[C@H](O)[C@H](O)C1O)OC(=O)CCCCCCCCCCCCCCC` (single isomer, unassigned) the value was 65%.

In the case of `CCCCCCCC/C=C\CCCCCCCC(=O)OC[C@H](CO[C@H]1O[C@H](CS(=O)(=O)O)[C@@H](O)[C@H](O)[C@H]1O)OC(=O)CCCCCCCCCCCCCCC`, the inhibition is 100%. For `CCCCC/C=C\C/C=C\CCCCCCCC(=O)OC[C@H](CO[C@H]1O[C@H](CS(=O)(=O)O)[C@@H](O)[C@H](O)[C@H]1O)OC(=O)CCCCCCCCCCCCCCC`, the inhibition stood at 100%.

Values taken from ChEMBL document CHEMBL1158876, “New acylated sulfoglycolipids and digalactolipids and related known glycolipids from cyanobacteria with a potential to inhibit the reverse transcriptase of HIV-1” (J Nat Prod, 1997).
